Laboratory results reported in US6359130B1, “Bridged indenopyrrolocarbazoles” (Cephalon, Inc., priority 1998, dated 2002).

Assays:
[1] = target: T1, VEGF receptor (human flk-1, KDR, VEGFR2) kinase domain (Homo sapiens, UniProt P35968); assay: Inhibition of VEGF receptor kinase activity (ELISA); assay type: biochemical; settings: 40 μM ATP; read-out: VEGFR kinase IC50
T1 construct: VEGF receptor (human flk-1, KDR, VEGFR2) kinase domain; made in house; host or cells: baculovirus expression system
Experimental: Bridged indenopyrrolocarbazole compounds were examined for their inhibitory effects on the kinase activity of baculovirus-expressed VEGF receptor (human flk-1, KDR, VEGFR2) kinase domain using the procedure described for the trkA kinase ELISA assay described above. The kinase reaction mixture, consisting of 50 mM Hepes, pH 7.4, 40 μM ATP, 10 mM MnCl2, 0.1% BSA, 2% DMSO, and various concentrations of inhibitor, was transferred to PLC-γ/GST-coated plates. VEGFR kinase was added and the reaction was allowed to proceed for 15 min. at 37° C. Detection of phosphorylated product was accomplished by addition of anti-phosphotyrosine antibody (UBI). A secondary enzyme-conjugated antibody was delivered to capture the antibody-phosphorylated PLC-γ/GST complex. The activity of the bound enzyme was measured via an amplified detection system (Gibco-BRL). Inhibition data were analyzed using the sigmoidal dose-response (variable slope) equation in GraphPad Prism.

[2] = target: T2, baculovirus-expressed human trkA cytoplasmic domain (Homo sapiens, UniProt P04629); assay: Inhibition of trkA tyrosine kinase activity (ELISA-based assay); assay type: biochemical; settings: for IC50: 40 μM ATP; for inhibition at 0.3 µM: read-out: trkA % inh @ 300 nM
T2 construct: baculovirus-expressed human trka cytoplasmic domain; made in house; host or cells: baculovirus expression system
Experimental: Selected bridged indenopyrrolocarbazole compounds were tested for their ability to inhibit the kinase activity of baculovirus-expressed human trka cytoplasmic domain using an ELISA-based assay as previously described (Angeles et al., Anal. Biochem. 236: 49-55, 1996). Briefly, the 96-well microtiter plate was coated with substrate solution (recombinant human phospholipase C-γl/glutathione S-transferase fusion protein (Rotin et al., EMBO J., 11: 559-567, 1992). Inhibition studies were performed in 100 μl assay mixtures containing 50 mM Hepes, pH 7.4, 40 μM ATP, 10 mM MnCl2, 0.1% BSA, 2% DMSO, and various concentrations of inhibitor. The reaction was initiated by addition of trkA kinase and allowed to proceed for 15 minutes at 37° C. An antibody to phosphotyrosine (UBI) was then added, followed by a secondary enzyme-conjugated antibody, alkaline phosphatase-labelled goat anti-mouse IgG (Bio-Rad). The activity of the bound enzyme was measured via an amplified detection system (Gibco-BRL). Inhibition data were analyzed using the sigmoidal dose-response (variable slope) equation in GraphPad Prism.

[3] = tested on: protein kinase C (mixed isozymes of a, b, g); assay: Inhibition of protein kinase C activity (Millipore Multiscreen TCA in-plate assay); assay type: biochemical; settings: for PKC % Inh. @ 1 uM: values in parentheses; for IC50: read-out: PKC IC50
Experimental: Protein kinase C activity was assessed using the Millipore Multiscreen TCA “in-plate” assay as described in Pitt, A. M. and Lee, C. (J. Biomol. Screening, 1: 47-51, 1996). Assays were performed in 96-well Multiscreen-DP plates (Millipore). Each […] assay mixture contained 20 mM Hepes, pH 7.4, 10 mM MgCl2, 2.5 mM EGTA, 2.5 mM CaCl2, 80 mg/ml phosphatidyl serine, 3.2 mg/ml diolein, 200 mg/ml histone H-1(Fluka), 5 mM [γ-^32P]ATP, 1.5 ng protein kinase C (UBI; mixed isozymes of a, b, g), 0.1% BSA, 2% DMSO, and test bridged fused pyrrolocarbazole compound. The reaction was allowed to proceed for 10 min at 37° C., then quenched by adding ice cold 50% trichloroacetic acid. The plates were allowed to equilibrate for 30 min at 4° C., then washed with ice cold 25% TCA. Scintillation cocktail was added to the plates, and the radioactivity was determined using Wallac MicroBeta 1450 PLUS scintillation counter. The IC50 values were calculated by fitting the data to the sigmoidal dose-response (variable slope) equation in GraphPad Prism.

[4] = target: T3, PDGFβ receptor kinase domain (Homo sapiens, UniProt P09619); assay: Inhibition of PDGF receptor kinase activity (ELISA); assay type: biochemical; settings: for PDGFR % Inh. @ 1 μM / inhibition at 1 µM: values in parentheses; for IC50: 20 μM ATP, read-out: PDGFR IC50; for inhibition at 1 µM: read-out: PDGFR % Inh. @ 1 μM
T3 construct: baculovirus-expresses PDGFβ receptor kinase domain; made in house; host or cells: baculovirus expression system
Experimental: Bridged indenopyrrolocarbazole compounds were examined for their inhibitory effects on the kinase activity of baculovirus-expresses PDGFβ receptor kinase domain using the trkA kinase ELISA described above. Assays were performed in substrate (PLC-γ/GST)-coated 96-well microtiter plates. Each 100-μl reaction mixture contained 50 mM HEPES, pH 7.4, 20 μM ATP, 10 mM MnCl2, 0.1% BSA, 2% DMSO, and various concentrations of inhibitor. The reaction was initiated by addition of prephosphorylated recombinant human enzyme (10 ng/ml PDGFRβ) and allowed to proceed for 15 minutes at 37° C. The prephosphorylated enzyme was prepared prior to use by incubation of the kinase in buffer containing 20 μM ATP and 10 mM MnCl2 for 1 hour at 4° C. Detection of phosphorylated product was done by adding horseradish peroxidase (HRP)-conjugated anti-phosphotyrosine antibody (UBI). The HRP substrate solution containing 3, 3′-5, 5′-tetramethylbenzidine and hydrogen peroxide was later added and the plates were incubated for 10 minutes at room temperature. The reaction was quenched with acid and the resulting absorbance was read at 450 nm using a Microplate Bio-kinetics Reader (Bio-Tek Instrument EL 312e). Inhibition data were analyzed using the sigmoidal dose-response (variable slope) equation in GraphPad Prism.

[5] = target: T4, trkA in NIH3T3 cells transfected with trkA (Homo sapiens, UniProt P04629); assay: Inhibition of NGF-stimulated trk phosphorylation in a whole cell preparation; assay type: cell-based; parameters: key to Inhibition Score at 100 nM: 0=no decrease; 1=1-25%; 2=26-49%; 3=50-75%; 4=76-100%; settings: NGF 10 ng/ml, percent decrease in trk protein band; for Inhibition Score at 100 nM: 100 nM compound; for Inhibition Score at 1000 nM: 1000 nM compound
T4 construct: expressed in transfected cells; host or cells: NIH3T3 cells
Experimental: NIH3T3 cells transfected with trkA were grown in 100 mm dishes. Subconfluent cells were serum-starved by replacing media with serum-free 0.05% BSA-DMEM containing compound (100 nM and 1 μM) or DMSO (added to controls) for one hour at 37° C. NGF (Harlan/Bioproducts for Science) was then added to the cells at a concentration of 10 ng/ml for 5 minutes. Cells were lysed in buffer containing detergent and protease inhibitors. Clarified cell lysates were normalized to protein using BCA method and immunoprecipitated with anti-trk antibody. Polyclonal anti-trk antibody was prepared against a peptide corresponding to the 14 amino acids at the carboxy terminus of trk (Martin-Zanca et al., Mol. Cell. Biol. 9: 24-33, 1989). The immune complexes were collected on Protein A Sepharose beads (Sigma Chem. Co., St. Lois, Mo.), separated by SDS polyacrylamide gel electrophoresis (SDS-PAGE), and transferred to a polyvinylidene difluoride (PVDF) membrane. The membrane was immunoblotted with anti-phosphotyrosine antibody (UBI), followed by incubation with horseradish peroxidase coupled goat anti-mouse IgG (Bio-Rad Laboratories, Hercules, Calif.). Phosphorylated proteins were visualized using ECL (Amersham Lite Science, Inc., Arlington Heights, Ill.). The area of the trk protein band was measured and compared to NGF-stimulated control. The inhibition scoring system used, based on percent decrease in trk protein band, was as follows: 0=no decrease; 1=1-25%; 2=26-49%; 3=50-75%; 4=76-100% Results are shown below in Table 3.

Spinal Cord ChAT = assay: Enhancement of spinal cord ChAT activity in dissociated rat embryonic spinal cord culture; assay type: cell-based
Experimental: For example, In these assays, a compound was directly added to a dissociated spinal cord culture. Compounds which increased ChAT activity at least 120% of the control activity were considered active.
Methods: Fetal rat spinal cord cells were dissociated, and experiments were performed as described (Smith et al., J. Cell Biology 101:1608-1621(1985); Glicksman et al., J. Neurochem. 61:210-221(1993) ). Dissociated cells were prepared from spinal cords dissected from rats (embryonic day 14-15) by standard trypsin dissociation techniques (Smith et al., supra.). Cells were plated at 6×10^5 cells/cm^2 on poly-1-ornithine coated plastic tissue culture wells in serum-free N2 medium supplemented with 0.05% bovine serum albumin (BSA) (Bottenstein et al., PNAS USA 76:514-517 (1979) ). Cultures were incubated at 37° C. in a humidified atmosphere of 5% CO2/95% air for 48 hours. ChAT activity was measured after 2 days in vitro using a modification of the Fonnum procedure (Fonnum, J. Neurochem. 24:407-409 (1975) ) according to McManaman et al. and Glicksman et al. (McManaman et al., Developmental Biology 125:311-320(1988); Glicksman et al., J. Neurochem., supra.).

T1 sequence (P35968 834-1162 limits assumed): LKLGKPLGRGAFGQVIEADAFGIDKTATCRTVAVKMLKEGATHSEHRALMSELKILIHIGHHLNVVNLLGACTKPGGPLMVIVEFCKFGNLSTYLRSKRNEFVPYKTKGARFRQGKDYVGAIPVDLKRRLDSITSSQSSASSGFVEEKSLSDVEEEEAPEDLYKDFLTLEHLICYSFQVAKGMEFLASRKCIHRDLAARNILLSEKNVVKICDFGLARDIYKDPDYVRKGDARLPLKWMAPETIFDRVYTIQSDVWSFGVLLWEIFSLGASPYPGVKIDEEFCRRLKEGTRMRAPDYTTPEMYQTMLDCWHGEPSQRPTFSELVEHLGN
T3 sequence (P09619 600-962 limits assumed): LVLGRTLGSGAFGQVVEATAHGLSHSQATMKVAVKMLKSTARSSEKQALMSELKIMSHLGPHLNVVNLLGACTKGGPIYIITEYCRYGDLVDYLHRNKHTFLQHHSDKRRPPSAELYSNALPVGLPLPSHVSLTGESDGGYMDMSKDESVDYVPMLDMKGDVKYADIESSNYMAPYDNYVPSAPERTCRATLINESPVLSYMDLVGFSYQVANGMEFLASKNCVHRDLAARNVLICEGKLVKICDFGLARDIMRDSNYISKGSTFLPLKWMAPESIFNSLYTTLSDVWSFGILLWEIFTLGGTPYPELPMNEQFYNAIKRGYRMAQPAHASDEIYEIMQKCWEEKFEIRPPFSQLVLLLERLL
T4 sequence (P04629 33-796): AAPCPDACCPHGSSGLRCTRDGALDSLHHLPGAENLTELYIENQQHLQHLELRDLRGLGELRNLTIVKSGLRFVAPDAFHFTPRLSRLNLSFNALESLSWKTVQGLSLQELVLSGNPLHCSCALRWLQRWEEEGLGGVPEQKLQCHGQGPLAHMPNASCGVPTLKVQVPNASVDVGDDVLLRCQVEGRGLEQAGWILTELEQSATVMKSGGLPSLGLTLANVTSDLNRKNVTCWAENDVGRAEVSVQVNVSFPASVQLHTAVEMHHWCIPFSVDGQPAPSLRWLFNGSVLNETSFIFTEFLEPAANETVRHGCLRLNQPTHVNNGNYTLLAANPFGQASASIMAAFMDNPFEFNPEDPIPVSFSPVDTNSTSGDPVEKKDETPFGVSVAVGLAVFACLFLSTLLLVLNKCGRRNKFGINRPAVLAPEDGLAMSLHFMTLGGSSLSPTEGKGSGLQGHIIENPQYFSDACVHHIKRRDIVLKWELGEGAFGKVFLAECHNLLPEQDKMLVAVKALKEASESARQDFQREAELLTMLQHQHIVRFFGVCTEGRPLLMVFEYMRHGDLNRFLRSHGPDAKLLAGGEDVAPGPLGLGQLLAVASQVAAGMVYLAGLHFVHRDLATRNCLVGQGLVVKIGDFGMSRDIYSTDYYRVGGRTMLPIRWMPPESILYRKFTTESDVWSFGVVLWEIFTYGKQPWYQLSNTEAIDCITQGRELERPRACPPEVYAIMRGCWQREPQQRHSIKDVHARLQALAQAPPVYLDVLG
T2 sequence (P04629 440-796 limits assumed): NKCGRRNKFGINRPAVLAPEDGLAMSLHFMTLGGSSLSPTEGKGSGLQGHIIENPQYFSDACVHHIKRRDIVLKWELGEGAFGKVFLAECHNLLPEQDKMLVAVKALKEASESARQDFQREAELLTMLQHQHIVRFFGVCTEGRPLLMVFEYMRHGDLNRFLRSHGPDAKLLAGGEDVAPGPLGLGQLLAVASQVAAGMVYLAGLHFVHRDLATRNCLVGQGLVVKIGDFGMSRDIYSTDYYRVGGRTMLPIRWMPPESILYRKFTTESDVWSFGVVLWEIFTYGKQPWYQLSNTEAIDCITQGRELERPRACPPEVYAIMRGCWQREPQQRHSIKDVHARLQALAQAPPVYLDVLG

Structure (SMILES)	IC50 [1] [nM]	IC50 [2] [nM]	PKC % Inh. @ 1 uM [3]	PDGFR % Inh. @ 1 μM [4]	Inhibition Score at 100 nM [5]	Inhibition Score at 1000 nM [5]	IC50 [3] [nM]	other results
O=C1NCc2c1c1c3c4c2c2ccccc2n4C2CCC(O2)C3c2ccccc2-1 (single isomer, unassigned) [II-1b]	67							
CC12CCCC(O1)n1c3ccccc3c3c4c(c5c(c31)C2c1ccccc1-5)C(=O)NC4 (single isomer, unassigned) [II-4a]	17	76	(18) %	(0) %				
CC12CCCC(O1)n1c3ccccc3c3c4c(c5c(c31)C2c1ccccc1-5)C(=O)NC4 (single isomer, unassigned) [II-4b]	184	16	(28) %	(17) %	0	2 (2=26-49%)		
CC12COCC(O1)n1c3ccccc3c3c4c(c5c(c31)C2c1ccccc1-5)C(=O)NC4 (single isomer, unassigned) [II-7a]	87	11		(36) %	3 (3=50-75%)	4 (4=76-100%)	696	
O=C1NCc2c1c1c3c4c2c2ccccc2n4C2CCC(O2)C3c2ccccc2-1 (centres unmarked) [II-1]	30	13			3 (3=50-75%)	4 (4=76-100%)	1300	IC50 [4]: 1380 nM; Spinal Cord ChAT Activity at 30 nM (Spinal Cord ChAT; 30 nM, active if at least 120% of control): 114 % control; Spinal Cord ChAT Maximal Activity (Spinal Cord ChAT; concentration of maximal activity printed in cell (300 nM)): 139 @ 300 nM % control
CCC12c3ccccc3-c3c4c(c5c6ccccc6n(c5c31)C1CCC2O1)CNC4=O (centres unmarked) [II-2]	> 10000		(−9) %					inhibition at 0.3 µM ([2]; 300 nM, values in parentheses): 20%; inhibition at 1 µM [4]: 7%
CC12CCC(O1)n1c3ccccc3c3c4c(c5c(c31)C2c1ccccc1-5)C(=O)NC4 (centres unmarked) [II-3]	71	9	(23) %	(28) %	1 (1=1-25%)	4 (4=76-100%)		
CC12CCC(O1)n1c3ccc(Br)cc3c3c4c(c5c(c31)C2c1ccccc1-5)C(=O)NC4 (centres unmarked) [II-5]	398	72	(37) %					IC50 [4]: 1080 nM
CC12COCC(O1)n1c3ccccc3c3c4c(c5c(c31)C2c1ccccc1-5)C(=O)NC4 (centres unmarked) [II-7b]	260	5			3 (3=50-75%)	4 (4=76-100%)	568	inhibition at 1 µM [4]: 34%
O=C1NCc2c3c4c5c(c21)c1ccccc1n5C1CCC(O1)C4c1ccccc1-3 (centres unmarked) [II-8]	26	254					1080	inhibition at 1 µM [4]: 15%
Nc1cccc(-c2ccc3c(c2)c2c4c(c5c6c2n3C2CCC(O2)C6c2ccccc2-5)C(=O)NC4)c1 (centres unmarked) [II-9]	318		(5) %					inhibition at 0.3 µM ([2]; 300 nM, values in parentheses): 34%; inhibition at 1 µM [4]: 24%
O=C1NC(=O)c2c1c1c3c4c2c2ccccc2n4C2CCC(O2)C3(O)c2ccccc2-1 (centres unmarked) [II-10]	601		(5) %	(23) %				trkA % inh @ 300 nM ([2]; 300 nM, values in parentheses): (17) %
CCOC(=O)C12CCC(O1)n1c3ccccc3c3c4c(c5c(c31)C2c1ccccc1-5)C(=O)NC4 (centres unmarked) [II-11]	205	121	(19) %	(15) %				
O=C1NCc2c1c1c3c4c2c2ccccc2n4C2CCC(CO)(O2)C3c2ccccc2-1 (centres unmarked) [II-12]	20	17					518	IC50 [4]: 125 nM
COc1ccc2c(c1)-c1c3c(c4c5ccccc5n5c4c1C2C1CCC5O1)CNC3=O (centres unmarked) [II-13]	8						576	IC50 [4]: 1230 nM
